Measurements: paper PMC4867306 (European journal of medicinal chemistry, 2016)
“Also recorded” adds a separate entry of the source. Read-outs that look alike come from different tables or passages of the source.

Tests used:
[1] = biological target: T1, NmAPN (M1 alanine aminopeptidase from Neisseria meningitidis) (Neisseria meningitidis, UniProt Q9JYV4)
T1 sequence (Q9JYV4 1-867): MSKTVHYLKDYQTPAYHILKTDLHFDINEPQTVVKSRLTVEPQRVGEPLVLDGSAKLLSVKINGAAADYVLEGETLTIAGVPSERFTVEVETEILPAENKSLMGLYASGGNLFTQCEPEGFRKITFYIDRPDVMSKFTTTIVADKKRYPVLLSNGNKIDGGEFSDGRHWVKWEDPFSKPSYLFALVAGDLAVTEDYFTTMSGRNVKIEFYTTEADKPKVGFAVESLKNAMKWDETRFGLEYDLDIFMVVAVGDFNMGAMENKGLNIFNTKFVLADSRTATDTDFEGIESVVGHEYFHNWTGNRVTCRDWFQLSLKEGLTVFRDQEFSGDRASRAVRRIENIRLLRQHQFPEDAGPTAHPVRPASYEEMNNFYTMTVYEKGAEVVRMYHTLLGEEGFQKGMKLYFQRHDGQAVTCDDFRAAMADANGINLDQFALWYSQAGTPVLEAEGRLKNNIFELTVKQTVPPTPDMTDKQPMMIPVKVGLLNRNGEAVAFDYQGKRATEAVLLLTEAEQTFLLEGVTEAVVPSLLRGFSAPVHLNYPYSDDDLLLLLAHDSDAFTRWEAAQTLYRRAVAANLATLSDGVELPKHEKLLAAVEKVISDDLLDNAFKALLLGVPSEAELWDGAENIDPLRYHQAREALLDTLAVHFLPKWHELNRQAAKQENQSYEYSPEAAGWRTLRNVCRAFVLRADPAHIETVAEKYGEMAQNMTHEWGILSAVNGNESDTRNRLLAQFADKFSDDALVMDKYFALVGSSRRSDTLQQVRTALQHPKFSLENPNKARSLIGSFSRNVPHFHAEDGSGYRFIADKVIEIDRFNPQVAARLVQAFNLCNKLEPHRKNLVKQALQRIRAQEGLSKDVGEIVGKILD

[2] = biological target: T2, LAP (M17 leucine aminopeptidase) (Sus scrofa, UniProt P28839); assay: Inhibition of porcine kidney leucine aminopeptidase; format: biochemical
T2 sequence (P28839 33-519 limits assumed): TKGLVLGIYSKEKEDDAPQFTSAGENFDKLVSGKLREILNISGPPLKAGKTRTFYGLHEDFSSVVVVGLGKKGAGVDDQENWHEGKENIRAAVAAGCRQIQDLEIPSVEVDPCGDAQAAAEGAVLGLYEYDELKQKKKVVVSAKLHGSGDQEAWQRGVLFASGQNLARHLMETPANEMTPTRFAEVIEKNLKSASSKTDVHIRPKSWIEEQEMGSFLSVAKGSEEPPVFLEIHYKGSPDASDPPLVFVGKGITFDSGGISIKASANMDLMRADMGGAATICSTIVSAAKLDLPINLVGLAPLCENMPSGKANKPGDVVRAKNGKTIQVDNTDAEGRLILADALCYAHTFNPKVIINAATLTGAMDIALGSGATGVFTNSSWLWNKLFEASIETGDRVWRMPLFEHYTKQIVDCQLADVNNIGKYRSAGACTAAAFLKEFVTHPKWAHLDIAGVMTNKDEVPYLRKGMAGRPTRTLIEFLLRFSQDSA

[3] = biological target: T1, NmAPN (M1 alanine aminopeptidase from Neisseria meningitidis); details: read-out: Ki NmAPN; cited from earlier work
[4] = biological target: T2, LAP (M17 leucine aminopeptidase); details: originally measured activity; NI = no inhibition up to 0.8 mM inhibitor concentration; cited from earlier work

## Nc1ccc(CNCC(N)P(=O)(O)O)cc1 (centres unmarked) [1r]
[1]
  improvement of affinity compared with non-modified analogue 1n: 3-to-4 fold

## NC(CNCC1CCCO1)P(=O)(O)O (centres unmarked) [1k]
[2]
  Ki: 2500 to 7000 nM

## COc1ccc(CNCC(N)P(=O)(O)O)cc1 (centres unmarked) [1s]
[1]
  improvement of affinity compared with non-modified analogue 1n: 3-to-4 fold

## NC(CCc1ccccc1)P(=O)(O)CC(Cc1ccccc1)C(=O)O (centres unmarked) [phosphinic analogue of hPhePhe]
[3]
  Ki: 302 nM

## NC(CN1CCOCC1)P(=O)(O)O (centres unmarked) [1w]
[2]; read-out: Ki LAP, NI = no inhibition up to 0.8 mM inhibitor concentration
  Ki: > 800000 nM

## CCCNCC(N)P(=O)(O)O (centres unmarked) [1c]
[4]
  Ki LAP: inactive; also recorded: do not inhibit LAP at all

## NC(CNC1CCCCC1)P(=O)(O)O (centres unmarked) [1h, N-cyclohexyl-1,2-diaminoethylphosphonic acid]
[4]
  Ki LAP: does not influence the LAP activity at all; also recorded: inactive; also recorded: do not inhibit LAP at all

## CC(C)CNCC(N)P(=O)(O)O (centres unmarked) [1d]
[4]
  Ki LAP: inactive; also recorded: do not inhibit LAP at all
